Assay [1] deals with class I/IIb HDAC activity in T47D cells. Briefly: cells. The assay is classed as cell-based, human. Particulars: T47D cells, 48 h, substrate Boc-Lys-AC-AMC; IC50 ± SEM, one experiment in triplicates; read-out: IC50 Cellular HDAC Assay. The procedure:
The cellular HDAC assay was performed based on an assay published by Heltweg and Jung and Ciossek et al.. Breast cancer cell line T-47D (12,000 c/w) was seeded in 96-well tissue culture plates (Corning, Kaiserslautern, Germany) in a total volume of 90 µL of culture medium. After 24 h, cells were incubated 48 h with increasing concentrations of a-lipoic acid. The reaction was started by adding 10 µL of 3 mM Boc-Lys(Ac)-AMC (Bachem, Bubensdorf, Switzerland) and again incubated for 3 h under cell culture conditions. […]

In a further assay the test system is T47D. Briefly: MTT cell viability assay, T47D. In kind it is cell-based, human. The procedure: (§1) MTT assays were performed as previously described. […] After incubation time, medium was replaced by MTT (solution of 5 mg/mL 3-(4,5-dimethylthiazol-2-yl)-2,5-diphenyl-tetrazoliumbromidin in phosphate buffered saline, Serva, Heidelberg, Germany).
The subject of the next assay is MDA-MB-231. Description: MTT cell viability assay, MDA-MB-231. In kind it is cell-based, human. As to the method: MTT assays were performed as previously described. Cell numbers plated differed depending on each incubation time: MDA-MB-231 5000 c/w, MCF-7 5000 c/w (72 h) and 3000 c/w (120 h), T-47D 10,000 c/w (72 h) and 5000 c/w /120 h). After incubation time, medium was replaced by MTT (solution of 5 mg/mL 3-(4,5-dimethylthiazol-2-yl)-2,5-diphenyl-tetrazoliumbromidin in phosphate buffered saline, Serva, Heidelberg, Germany). After 10 min (MCF-7), 20 min (MDA-MB-231), and 30 min (T47D) and dissolving in DMSO (VWR, Langenfeld, Germany), absorbance was measured at 544 nm and 690 nm in a FLUOstar microplate reader (BMG LabTech, Offenburg, Germany).

In a further assay the target is T1, HDAC4 (Homo sapiens, UniProt P56524).
T1 construct: purchased Reaction Biology Corp. KDA-21-279
Briefly: Enzyme HDAC inhibition assay, HDAC4. Particulars: IC50 ± SEM; three experiments in duplicates; read-out: IC50 HDAC 4. In kind it is biochemical.

Assay [2] addresses HDAC2 (Homo sapiens, UniProt Q92769). Briefly: Enzyme HDAC inhibition assay, HDAC2. As to conditions: read-out: IC50 HDAC 2; IC50 ± SEM; three experiments in duplicates.
Description: (§2) All human recombinant enzymes were purchased from Reaction Biology Corp. (Malvern, PA, USA).
Assay [3] relates to HDAC6. Particulars: obtained by fitting Lechner et al. source data to a sigmoidal concentration–effect model; ref [21]; read-out: IC50 HDAC 6, Lechner et al.; cited from earlier work.
Assay [4] concerns the target T2, HDAC6 (Homo sapiens, UniProt Q9UBN7).
T2 sequence (Q9UBN7 1-1215): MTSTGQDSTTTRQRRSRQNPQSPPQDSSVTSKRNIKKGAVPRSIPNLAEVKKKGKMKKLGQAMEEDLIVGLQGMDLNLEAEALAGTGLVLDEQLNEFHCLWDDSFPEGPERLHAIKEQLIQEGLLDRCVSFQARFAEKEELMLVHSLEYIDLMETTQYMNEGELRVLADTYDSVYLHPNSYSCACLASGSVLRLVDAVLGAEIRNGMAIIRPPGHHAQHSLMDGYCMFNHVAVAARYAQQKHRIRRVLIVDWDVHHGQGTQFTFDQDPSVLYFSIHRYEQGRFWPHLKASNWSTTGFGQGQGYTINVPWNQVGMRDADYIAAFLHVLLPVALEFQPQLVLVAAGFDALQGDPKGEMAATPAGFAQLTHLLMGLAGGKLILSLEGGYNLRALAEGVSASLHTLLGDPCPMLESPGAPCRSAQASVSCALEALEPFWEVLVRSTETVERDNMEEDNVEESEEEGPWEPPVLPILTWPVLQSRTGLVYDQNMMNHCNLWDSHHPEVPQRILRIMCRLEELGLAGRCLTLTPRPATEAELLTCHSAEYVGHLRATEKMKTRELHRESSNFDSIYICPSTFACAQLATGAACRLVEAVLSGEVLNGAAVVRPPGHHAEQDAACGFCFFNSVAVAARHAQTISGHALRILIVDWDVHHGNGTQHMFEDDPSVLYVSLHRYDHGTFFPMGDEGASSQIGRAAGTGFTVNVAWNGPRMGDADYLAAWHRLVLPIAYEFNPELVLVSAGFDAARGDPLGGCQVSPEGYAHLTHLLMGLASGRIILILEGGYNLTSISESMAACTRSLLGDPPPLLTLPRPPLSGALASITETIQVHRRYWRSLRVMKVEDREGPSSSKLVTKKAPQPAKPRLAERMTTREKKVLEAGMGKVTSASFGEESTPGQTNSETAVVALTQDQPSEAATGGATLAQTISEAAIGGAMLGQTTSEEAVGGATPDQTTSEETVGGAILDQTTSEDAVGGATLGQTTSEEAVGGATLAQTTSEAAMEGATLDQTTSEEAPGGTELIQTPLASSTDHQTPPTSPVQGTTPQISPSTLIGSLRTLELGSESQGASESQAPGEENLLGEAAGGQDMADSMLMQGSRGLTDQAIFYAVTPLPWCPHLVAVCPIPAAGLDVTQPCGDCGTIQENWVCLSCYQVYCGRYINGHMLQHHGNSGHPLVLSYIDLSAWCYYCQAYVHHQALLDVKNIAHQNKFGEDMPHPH
Description: Enzyme HDAC inhibition assay, HDAC6. Particulars: read-out: IC50 HDAC 6; IC50 ± SEM; three experiments in duplicates.
Description: as §2

In another assay the test system is HDAC8. Particulars: obtained by fitting Lechner et al. source data to a sigmoidal concentration–effect model; ref [21]; read-out: IC50 HDAC 8, Lechner et al.; cited from earlier work.
Assay [5] concerns HDAC2. Particulars: obtained by fitting Lechner et al. source data to a sigmoidal concentration–effect model; ref [21]; read-out: IC50 HDAC 2, Lechner et al.; cited from earlier work.
A further assay has as its system MCF-7. Briefly: MTT cell viability assay, MCF-7. In kind it is cell-based, human. As to the method:
as §1

[6] abbreviates: 120 h, IC50 ± SEM, read-out: IC50 T-47D, 120 h MTT assay.
[7] abbreviates: 120 h, IC50 ± SEM, read-out: IC50 MDA-MB-231, 120 h MTT assay.
[8] abbreviates: 120 h, IC50 ± SEM, read-out: IC50 MCF-7, 120 h MTT assay.

Like-named read-outs stand apart in the source and are kept apart here.

T1 sequence (P56524 whole entry): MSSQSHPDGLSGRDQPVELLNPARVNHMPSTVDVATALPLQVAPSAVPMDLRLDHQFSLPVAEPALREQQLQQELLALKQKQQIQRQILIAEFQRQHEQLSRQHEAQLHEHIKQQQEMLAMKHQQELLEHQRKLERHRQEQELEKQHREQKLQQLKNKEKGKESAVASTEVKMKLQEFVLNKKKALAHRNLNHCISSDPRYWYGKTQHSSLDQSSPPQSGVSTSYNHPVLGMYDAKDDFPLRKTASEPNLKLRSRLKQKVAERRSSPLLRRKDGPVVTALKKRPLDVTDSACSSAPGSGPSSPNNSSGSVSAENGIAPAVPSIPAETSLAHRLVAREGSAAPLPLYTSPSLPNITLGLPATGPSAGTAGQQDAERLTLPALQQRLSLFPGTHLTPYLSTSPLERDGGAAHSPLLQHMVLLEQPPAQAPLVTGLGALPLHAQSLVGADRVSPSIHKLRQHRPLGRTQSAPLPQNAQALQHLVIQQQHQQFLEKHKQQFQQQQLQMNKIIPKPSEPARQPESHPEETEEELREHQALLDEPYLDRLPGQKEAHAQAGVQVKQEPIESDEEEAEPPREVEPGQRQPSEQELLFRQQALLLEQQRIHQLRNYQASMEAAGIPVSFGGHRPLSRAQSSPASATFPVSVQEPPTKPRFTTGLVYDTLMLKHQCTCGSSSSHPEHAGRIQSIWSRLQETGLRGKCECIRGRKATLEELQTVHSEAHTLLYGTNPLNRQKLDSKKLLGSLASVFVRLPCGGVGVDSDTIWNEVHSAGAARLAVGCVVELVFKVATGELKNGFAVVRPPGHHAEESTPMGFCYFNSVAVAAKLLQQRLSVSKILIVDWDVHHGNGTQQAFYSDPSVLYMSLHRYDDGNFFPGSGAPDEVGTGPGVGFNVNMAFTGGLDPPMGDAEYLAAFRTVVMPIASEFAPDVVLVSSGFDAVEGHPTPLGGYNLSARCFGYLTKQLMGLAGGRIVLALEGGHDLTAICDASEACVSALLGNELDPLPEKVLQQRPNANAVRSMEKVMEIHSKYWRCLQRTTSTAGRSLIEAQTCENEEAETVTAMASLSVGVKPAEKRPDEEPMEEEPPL
Chain of HDAC2 (Homo sapiens, UniProt Q92769) (Q92769 whole entry): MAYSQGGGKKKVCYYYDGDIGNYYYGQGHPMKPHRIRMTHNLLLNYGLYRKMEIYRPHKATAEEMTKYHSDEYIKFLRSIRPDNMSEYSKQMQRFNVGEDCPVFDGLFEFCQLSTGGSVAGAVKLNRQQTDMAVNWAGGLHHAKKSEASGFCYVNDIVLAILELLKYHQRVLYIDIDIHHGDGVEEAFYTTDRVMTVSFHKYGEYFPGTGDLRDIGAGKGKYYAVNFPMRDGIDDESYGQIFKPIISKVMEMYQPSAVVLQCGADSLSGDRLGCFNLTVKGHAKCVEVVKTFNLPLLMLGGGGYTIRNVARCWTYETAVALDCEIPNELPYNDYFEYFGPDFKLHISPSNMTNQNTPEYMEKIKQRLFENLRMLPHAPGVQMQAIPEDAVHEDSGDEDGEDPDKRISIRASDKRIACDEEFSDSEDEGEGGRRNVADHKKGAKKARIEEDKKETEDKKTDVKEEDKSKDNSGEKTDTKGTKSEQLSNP
Description for HDAC4: as §2

Take `O=C(O)CCCC[C@H]1CCSS1` [(S)-α-lipoic acid]: the IC50 in [1] is 906 ± 87.7 µM; in the assay with T47D (setting [6]), 338 ± 17.4 µM; in the assay on MDA-MB-231 (setting [7]), 243 ± 25.1 µM; on HDAC4, 324 ± 39.9 µM; at HDAC2 [2], 299 ± 34.6 µM; with HDAC6 [3], over 500 µM. Further, the IC50 at HDAC6 [4] was 21.3 ± 1.23 µM; with HDAC8 it was over 500 µM; with HDAC2 [5], over 500 µM; with MCF-7 (setting [8]) it was 429 ± 26.8 µM.
Take `O=C(O)CCCC[C@@H]1CCSS1` [(R)-α-lipoic acid]: the IC50 in assay [1] was 969 ± 120 µM; in the assay on T47D (72 h MTT, slightly above, read-out: IC50 T47D), about 1000 µM; in the assay on T47D (setting [6]), 435 ± 28.6 µM; in the assay with T47D (read-out: IC50 T-47D, 72 h MTT assay, 72 h, IC50 ± SEM) it was 1120 ± 67.8 µM; in the assay on MDA-MB-231 (72 h MTT, slightly below, read-out: IC50 MDA-MB-231), about 1000 µM; in the assay on MDA-MB-231 (setting [7]), 225 ± 7.33 µM. Further, the IC50 in the assay with MDA-MB-231 (read-out: IC50 MDA-MB-231, 72 h MTT assay, 72 h, IC50 ± SEM) is 873 ± 36 µM; on HDAC4, 168 ± 19.3 µM; on HDAC2 [2], 208 ± 34.9 µM; with HDAC6 [3], 210 µM; at HDAC6 [4] it was 14.2 ± 2.62 µM; in the assay on HDAC8, 127 µM. For the same compound, the IC50 with HDAC2 [5] is about 500 µM; with MCF-7 (72 h MTT, slightly above, read-out: IC50 MCF-7), about 1000 µM; in the assay with MCF-7 (setting [8]), 439 ± 16.3 µM; in the assay with MCF-7 (read-out: IC50 MCF-7, 72 h MTT assay, 72 h, IC50 ± SEM) it was 1170 ± 28.9 µM. Also, in the assay with T47D (100 µM, 120 h MTT), the “reduction of proliferation at 100 µM, T47D” value worked out at 12%. The “reduction of proliferation at 300 µM, T47D” value with T47D (300 µM, 120 h MTT, more pronounced effect in T47D) is given as “significantly reduced proliferation”. Further, in the assay on T47D (1 mM, 72 h MTT), the “decrease of cell viability, T47D” value was “approximately 35%”. Further, in the assay on T47D (120 h versus 72 h MTT), the “increase in potency by prolongation of incubation time, T47D” value is recorded as 2.6 fold. Moreover, the “increase in potency by prolongation of incubation time, MDA-MB-231” value in the assay on MDA-MB-231 (120 h versus 72 h MTT) is listed as 3.9 fold. Besides, in the assay with MCF-7 (100 µM, 120 h MTT), the “inhibition of cell proliferation at 100 µM, MCF-7” value is recorded as “did not inhibit cell proliferation”. Also, the “reduction of proliferation at 300 µM, MCF-7” value in the assay with MCF-7 (300 µM, 120 h MTT) is “significantly reduced proliferation”. Also, the “decrease of cell viability, MCF-7” value in the assay with MCF-7 (1 mM, 72 h MTT) is “approximately 35%”. Besides, in the assay with MCF-7 (120 h versus 72 h MTT), the “increase in potency by prolongation of incubation time, MCF-7” value stood at 2.7 fold.

The values above are taken from PMC11313180 (International Journal of Molecular Sciences, 2024).
